Literature values as cited in US10537125B2, “Chlorine dioxide gas releasing package label insert for enhancing microbial safety of food” (priority 2016, dated 2020).

Key:
Salmonella [1] = conditions: one-time application, treatment time 6 min to 120 min
Salmonella [2] = conditions: constant ClO2 0.5 mg/L air for 15, 30, and 60 min
[3] = at 20° C. and 760 mm Hg

In the case of `[O][Cl+][O-]` [ClO2, chlorine dioxide], the “Salmonella inactivation range reported by others” value (Salmonella [1]) is listed as 1.54-5.15 log, the “reduction of Salmonella on mung bean sprouts” value (Salmonella [2]) is listed as “up to 4 log CFU Salmonella/g” and the solubility in water [3] is listed as “about 70 g/L”.
